Our source for the Activity, inhibition in vivo and EC50 values is ChEMBL document CHEMBL5143608, “Peptide-based long-acting co-agonists of GLP-1 and cholecystokinin 1 receptors as novel anti-diabesity agents” (Eur J Med Chem, 2022).

The structures appear in SMILES notation. pEC50: −log10 of the molar value. Activity calls are given as the source filed them. The calls are words filed in the database; no cut-off is given here. *1 amine or outer side, *2 acyl side, *3 side chain or, on linkers, in order; H or OH if unused. Where a SMILES comes first, the peptide text is derived from it. Side-chain parts run from the residue outwards. [ ]: non-standard residue; d: D form. The star is where a group is joined. ξ: configuration not given here. Phe(4-CH2SO3H) = N[C@@H](Cc1ccc(CS(=O)(=O)O)cc1)C(=O)O; C18 diacid = O=C(O)CCCCCCCCCCCCCCCCC(=O)*; γGlu = O=C(O)[C@H](CCC(=O)[*:2])N[*:1]; Palmitoyl = CCCCCCCCCCCCCCCC(=O)*; NMeF = CN[C@@H](Cc1ccccc1)C(=O)O; dNMeD = CN[C@H](CC(=O)O)C(=O)O; ξpGlu = O=C1CCC(C(=O)O)N1; Nle = CCCC[C@H](N)C(=O)O; AEEA = NCCOCCOCC(=O)O; Aib = CC(C)(N)C(=O)O

In assay [1] the test system is Mus musculus. The experiment in a line: Anti-diabesity activity against high fat diet-induced DIO C57BL/6 mouse model assessed as reduction in food intake at 25 nmol/kg, sc administered for 2 weeks. The format is functional, organism-based. The settings on record: time 14.0 day.
Assay [2] deals with Mus musculus. The experiment in a line: Insulinotropic activity in db/db mouse assessed as elevation of plasma insulin level at 25 nmol/kg, ip administered 30 min before oral glucose administration and measured upto 60 mins by ELISA. The assay is classed as functional, organism-based. The note with it: time <= 90.0 min. (ELISA stands for enzyme-linked immunosorbent assay.)
In assay [3] the test system is Mus musculus. The experiment in a line: Anti-diabesity activity against DIO C57BL/6 mouse assessed as reduction in cholesterol level in serum at 25 nmol/kg, sc administered every 2 days for 3 weeks. The assay is classed as functional, organism-based. The note with it: time 21.0 day.
The test system of assay [4] is Mus musculus. The experiment in a line: Anti-diabesity activity against high fat diet-induced DIO C57BL/6 mouse model assessed as decrease in body weight at 25 nmol/kg, sc administered for 2 weeks. The assay is classed as functional. The settings on record: C57BL/6, 336 h, time 14 day.
The subject of assay [5] is Mus musculus. The experiment in a line: Anti-diabesity activity against DIO C57BL/6 mouse assessed as reduction in triglycerides level in serum at 25 nmol/kg, sc administered every 2 days for 3 weeks. The note with it: time 21.0 day. The format is functional, organism-based.
In assay [6] the test system is Mus musculus. The experiment in a line: Anti-diabesity activity against DIO C57BL/6 mouse assessed as reduction in body weight at 25 nmol/kg, sc administered every 2 days for 3 weeks. The assay is classed as functional. The note with it: C57BL/6, 504 h, time 21 day.
Assay [7] deals with Mus musculus. The experiment in a line: Anti-diabesity activity in DIO C57BL/6 mouse assessed as reduction in body weight at 100 nmol/kg, sc administered every 2 days for 10 days. The format is functional. The settings on record: C57BL/6, 240 h, time 10 day.
Assay [8] relates to Mus musculus. The experiment in a line: Anti-diabesity activity in DIO C57BL/6 mouse assessed as reduction in body weight at 10 nmol/kg, sc administered every 2 days for 10 days. The format is functional. The note with it: C57BL/6, 240 h, time 10 day.
In assay [9] the test system is Mus musculus. The experiment in a line: Hypoglycemic activity in db/db mouse assessed as improvement in glucose tolerance at 25 nmol/kg, ip administered 30 min before oral glucose administration and measured upto 120 mins by OGTT. The format is functional, organism-based.
Assay [10] has as its system Mus musculus. The experiment in a line: Anti-diabesity activity in DIO C57BL/6 mouse assessed as reduction in body weight at 25 nmol/kg, sc administered every 2 days for 10 days. The format is functional. The settings on record: C57BL/6, 240 h, time 10 day.
Assay [11] relates to Mus musculus. The experiment in a line: Anti-diabesity activity against high fat diet-induced DIO C57BL/6 mouse model assessed as reduction in fasted blood glucose level at 25 nmol/kg, sc administered for 2 weeks and measured on day 15 by glucometer analysis. The assay is classed as functional, organism-based. The note with it: time 15.0 day.
Assay [12] deals with Mus musculus. The experiment in a line: Anti-diabesity activity against DIO C57BL/6 mouse assessed as improvement in glucose tolerance at 25 nmol/kg, sc administered every 2 days for 3 weeks by OGTT. The format is functional, organism-based. The settings on record: time 21.0 day.
Assay [13] has as its system Mus musculus. The experiment in a line: Anti-diabesity activity against DIO C57BL/6 mouse assessed as decrease in fat mass at 25 nmol/kg, sc administered every 2 days for 3 weeks. The format is functional, organism-based. The note with it: time 21.0 day.
The target in assay [14] is T1, Gastrin/cholecystokinin type B receptor (Homo sapiens, UniProt P32239).
T1 sequence (P32239 whole entry): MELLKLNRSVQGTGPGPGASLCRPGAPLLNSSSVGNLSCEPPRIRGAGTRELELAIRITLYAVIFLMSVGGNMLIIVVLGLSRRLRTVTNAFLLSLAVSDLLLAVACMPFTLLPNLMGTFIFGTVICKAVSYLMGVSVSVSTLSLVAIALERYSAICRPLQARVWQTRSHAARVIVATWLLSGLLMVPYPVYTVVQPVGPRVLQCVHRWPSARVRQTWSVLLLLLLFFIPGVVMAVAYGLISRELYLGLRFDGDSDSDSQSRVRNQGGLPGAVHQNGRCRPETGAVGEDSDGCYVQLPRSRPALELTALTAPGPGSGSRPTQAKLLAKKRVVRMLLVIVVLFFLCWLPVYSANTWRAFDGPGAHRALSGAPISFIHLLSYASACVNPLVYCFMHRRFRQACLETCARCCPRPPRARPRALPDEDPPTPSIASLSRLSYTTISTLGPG
The experiment in a line: Agonist activity at human CCK2R expressed in HEK293 cells assessed as ERK1/2 phosphorylation incubated for 5 mins by AlphaScreen assay. The format is functional, cell-based. In general terms: In Alpha technology, singlet oxygen from a donor bead excites a nearby acceptor bead.

Assay [15] concerns Mus musculus. The experiment in a line: Anorectic activity in ICR mouse assessed as decrease in food intake at 25 nmol/kg, ip and measured after 24 hrs. The format is functional, organism-based.
Assay [16] has as its system Mus musculus. The experiment in a line: Anti-diabesity activity against high fat diet-induced DIO C57BL/6 mouse model assessed as improvement in glucose tolerance level at 25 nmol/kg, sc administered for 2 weeks and measured on day 16 by oral glucose tolerance test. The assay is classed as functional, organism-based. The note with it: time 16.0 day.
Assay [17] deals with Mus musculus. The experiment in a line: Anti-diabesity activity against high fat diet-induced DIO C57BL/6 mouse model assessed as reduction in fat mass accumulation at 25 nmol/kg, sc administered for 2 weeks and measured on day 15 by NMR analysis. The format is functional, organism-based. The note with it: time 15.0 day.
Assay [18] has as its system Mus musculus. The experiment in a line: Anti-diabesity activity against DIO C57BL/6 mouse assessed as reduction in cumulative food intake at 25 nmol/kg, sc administered every 2 days for 3 weeks. The format is functional, organism-based. The note with it: time 21.0 day.
A further assay deals with BRIN-BD11. The experiment in a line: Insulinotropic activity in rat BRIN-BD11 cells assessed as increase in insulin secretion incubated for 20 mins by radioimmunoassay. The format is functional, cell-based. The settings on record: DDE = dose-dependent effect.
The target of assay [19] is T2, Cholecystokinin receptor type A (Homo sapiens, UniProt P32238).
T2 sequence (P32238 whole entry): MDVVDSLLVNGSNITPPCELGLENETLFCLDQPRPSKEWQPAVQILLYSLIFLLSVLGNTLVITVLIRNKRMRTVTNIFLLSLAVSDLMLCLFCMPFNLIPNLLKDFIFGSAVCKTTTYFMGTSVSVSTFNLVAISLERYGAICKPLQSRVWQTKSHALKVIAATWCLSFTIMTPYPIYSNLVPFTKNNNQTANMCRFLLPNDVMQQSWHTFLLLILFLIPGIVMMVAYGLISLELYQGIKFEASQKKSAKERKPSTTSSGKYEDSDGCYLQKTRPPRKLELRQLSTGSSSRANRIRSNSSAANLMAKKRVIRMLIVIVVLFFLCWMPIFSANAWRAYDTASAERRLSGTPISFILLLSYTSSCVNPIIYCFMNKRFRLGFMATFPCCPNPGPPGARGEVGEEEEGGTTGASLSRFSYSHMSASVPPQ
The experiment in a line: Agonist activity at human CCK1R expressed in HEK293 cells assessed as ERK1/2 phosphorylation incubated for 5 mins by AlphaScreen assay. The format is functional, cell-based.

Assay [20] relates to Mus musculus. The experiment in a line: Anti-diabesity activity in DIO C57BL/6 mouse assessed as improvement in insulin sensitivity at 25 nmol/kg, sc administered every 2 days for 10 days by insulin tolerance test. The format is functional, organism-based. The note with it: time 10.0 day.
Assay [21] relates to Mus musculus. The experiment in a line: Anti-diabesity activity against DIO C57BL/6 mouse assessed as reduction in fasted blood glucose level at 25 nmol/kg, sc administered every 2 days for 3 weeks. The note with it: time 21.0 day. The assay is classed as functional, organism-based.
Assay [22] concerns Mus musculus. The experiment in a line: Hypoglycemic activity in db/db mouse assessed as reduction in glucose excursion at 25 nmol/kg, ip administered 30 min before oral glucose administration and measured upto 120 mins by OGTT. The assay is classed as functional, organism-based.
Assay [23] concerns Mus musculus. The experiment in a line: Hypoglycemic activity in ICR mouse assessed as improvement in glucose tolerance at 25 nmol/kg, ip administered 30 min before oral glucose administration and measured upto 120 mins by OGTT. The format is functional, organism-based.
For assay [24], the system named is Mus musculus. The experiment in a line: Anorectic activity in ICR mouse assessed as decrease in food intake at 25 nmol/kg, ip and measured after 9 hrs. The format is functional, organism-based.

What is called inhibition in vivo is the percentage by which the read-out fell short of the control. The term pEC50 denotes −log10 of the EC50, conventionally taken in molar units. As to `CCCC[C@H](NC(=O)[C@H](Cc1ccc(CS(=O)(=O)O)cc1)NC(=O)[C@H](CC(=O)O)NC(=O)COCCOCCNC(=O)COCCOCCNC(=O)CC[C@H](NC(=O)CCCCCCCCCCCCCCCCC(=O)O)C(=O)O)C(=O)NCC(=O)N[C@@H](Cc1c[nH]c2ccccc12)C(=O)N[C@@H](CCCC)C(=O)N(C)[C@H](CC(=O)O)C(=O)N(C)[C@@H](Cc1ccccc1)C(N)=O` ({C18 diacid-γGlu-AEEA-AEEA}-D[Phe(4-CH2SO3H)][Nle]GW[Nle][dNMeD][NMeF]-NH2), the outcome in the assay on Mus musculus [1], in the assay with Mus musculus [2], with Mus musculus [3], in the assay on Mus musculus [5], in the assay on Mus musculus [9] and in the assay with Mus musculus [11] was Active. Also, the outcome in the assay on Mus musculus [12], with Mus musculus [13], with Mus musculus [15], in the assay with Mus musculus [16], in the assay with Mus musculus [17] and with Mus musculus [18] was Active. The result in the assay with Mus musculus [20], in the assay on Mus musculus [21] and in the assay on Mus musculus [22] was Active. Besides, the inhibition in vivo at 0.025 µmol/kg in the assay with Mus musculus [4] was 7.1%; in the assay with Mus musculus [6], 9.8%; in the assay with Mus musculus [10], 6.1%. Further, in the assay on Mus musculus [7], the inhibition in vivo at 0.1 µmol/kg was 10%. Also, the inhibition in vivo at 0.01 µmol/kg in the assay with Mus musculus [8] was determined as 3.9%. For the same compound, the negative logarithm of the EC50 (pEC50) in [14] was under 7.00; in assay [19] it was 9.68. Further, the Activity result with BRIN-BD11 was “Dde”.

For `CC(C)C[C@H](NC(=O)[C@H](Cc1c[nH]c2ccccc12)NC(=O)CNC(=O)[C@H](Cc1ccc(O)cc1)NC(=O)[C@H](C)NC(=O)[C@H](CCC(=O)O)NC(=O)[C@H](CCC(=O)O)NC(=O)[C@H](CCC(=O)O)NC(=O)[C@H](CCC(=O)O)NC(=O)[C@H](CCC(=O)O)NC(=O)[C@H](CC(C)C)NC(=O)[C@H](Cc1c[nH]c2ccccc12)NC(=O)[C@@H]1CCCN1C(=O)CNC(=O)C1CCC(=O)N1)C(=O)N[C@@H](CC(=O)O)C(=O)N[C@@H](Cc1ccccc1)C(N)=O` (stereo partly specified) ([ξpGlu]GPWLEEEEEAYGWLDF-NH2), the negative-log EC50 (pEC50) in assay [14] is 8.62; in [19], under 7.00.

As for `CCCCCCCCCCCCCCCC(=O)N[C@@H](CCC(=O)NCCCC[C@H](NC(=O)[C@H](C)NC(=O)[C@H](C)NC(=O)[C@H](CCC(=O)O)NC(=O)[C@H](CCC(=O)O)NC(=O)[C@H](CCC(=O)O)NC(=O)[C@H](CC(C)C)NC(=O)[C@@H](NC(=O)[C@H](CCC(=O)O)NC(=O)[C@@H](NC(=O)[C@@H](NC(=O)[C@H](CC(=O)O)NC(=O)[C@H](CC(N)=O)NC(=O)[C@@H](NC(=O)[C@H](Cc1ccc(O)cc1)NC(=O)[C@@H](NC(=O)CNC(=O)[C@H](CCC(=O)O)NC(=O)C(C)(C)NC(=O)[C@@H](N)Cc1cnc[nH]1)[C@@H](C)O)[C@@H](C)O)C(C)C)[C@@H](C)O)[C@@H](C)O)C(=O)N[C@@H](CCC(=O)O)C(=O)N[C@@H](Cc1ccccc1)C(=O)N[C@H](C(=O)N[C@@H](CCC(=O)O)C(=O)N[C@@H](Cc1c[nH]c2ccccc12)C(=O)N[C@@H](CC(C)C)C(=O)N[C@H](C(=O)N[C@@H](CCCCN)C(=O)NCC(=O)N[C@@H](CCCCN)C(N)=O)[C@@H](C)CC)[C@@H](C)CC)C(=O)O` (H-H[Aib]EGTYTNDVTETLEEEAAK([γGlu-Palmitoyl])EFIEWLIKGK-NH2), the result with Mus musculus [1], in the assay with Mus musculus [15], with Mus musculus [17], in the assay on Mus musculus [23] and with Mus musculus [24] was Active. Also, in the assay on Mus musculus [4], the inhibition in vivo at 0.025 µmol/kg came out at 12.1%.
